Values quoted from earlier work in patent publication US5667811A, “Na-K-ATPase inhibiting natriuretic substances” (The Regents of the University of California, priority 1992, dated 1997).
No end group written: not given here.

What was measured:
active transport = settings: literature
Na-K-ATPase = settings: literature

ANF: atrial natriuretic factor, synthesized or stored in cardiac atria (SLRRSSCFGGRMDRIGAQSGLGCNSFRY; ends and bridges not checked; cysteine pairing not given here; UniProt P01160 124-151, looked up)
inhibition of active transport (active transport): does not inhibit active transport

lysophosphatidyl choline
Na-K-ATPase inhibition (Na-K-ATPase): potent Na-K-ATPase inhibitors
